Measured values reported in US20140113877A1, “NOVEL 3,4,4A,10B-TETRAHYDRO-1H-THIOPYRANO[4,3-C] ISOQUINOLINE COMPOUNDS” (Takeda GmbH, priority 2011, published 2014).

Assays:
human PDE5 = biological target: T1, human PDE5 (Homo sapiens, UniProt O76074); test: Inhibition of PDE5 activity (SPA, [3H]cGMP, platelet lysate); format: biochemical; details: 0.5 μM cGMP, binned: below 8 / between 8 and 9, read-out: PDE5 inhibitory values measured as −logIC50 (converted)
T1 construct: from tissue; host or cells: human platelets from fresh donor blood (platelet lysate)
Description: As a source for human PDE5, platelets were used. For that purpose, 150 ml fresh blood from human donors anticoagulated with citrate [final concentration 0.3% (w/v)] was centrifuged at 200 g for 10 min to obtain the so-called platelet-rich-plasma (PRP) as a supernatant. 1/10 volume of ACD solution (85 mM Na3-citrate, 111 mM D-glucose, 71 mM citric acid, pH 4.4) was added to 9/10 volume of PRP. After centrifugation (1,400 g, 10 min) the cell pellet was resuspended in 3 ml homogenization buffer (NaCl 140 mM, KCl 3.8 mM, EGTA (ethylene glycol tetraacetic acid) 1 mM, MgCl2 1 mM, Tris-HCl 20 mM, beta-mercaptoethanol 1 mM, pH 8.2) plus protease-inhibitor mix resulting in final concentrations of 0.5 mM Pefablock (Roche), 10 μM Leupeptin, 5 μM Trypsine inhibitor, 2 mM Benzamidin and 10 μM Pepstatin A. The suspension was sonicated and thereafter centrifuged for 15 min at 10,000 g. The resulting supernatant (platelet lysate) was used for enzymatic assays.
PDE5 activities were measured in a 96-well platform using SPA (scintillation proximity assay) yttrium silicate beads (RPNQ1050 from GE Healthcare). In a first step the PDE activity operated hydrolysis of either [^3H] cGMP (substrate) into [^3H] 5′GMP. In a second step substrate and product were distinguished following addition of SPA yttrium silicate beads. Indeed, in the presence of zinc sulphate the linear [^3H] […] Close proximity of bound [^3H] […] The test volume was 100 μl and contained 20 mM Tris buffer (pH 7.4), 0.1 mg of BSA (bovine serum albumin)/ml, 5 mM Mg^2+, 1 μM motapizone (PDE3 Inhibitor), 10 nM PDE2 inhibitor 2-(3,4-dimethoxybenzyl)-7-[(1R,2R)-2-hydroxy-1-(2-phenylethyl)propyl]-5-methylimidazo[5,1-f][1,2,4]triazin-4(3H)-one, 0.5 μM cGMP (cyclic guanosine monophosphate) (including about 50,000 cpm of [3H]cGMP as a tracer) (substrate), 1 μl of the respective compound dilution in dimethylsulfoxide (DMSO) and sufficient PDE5-containing platelet lysat (10,000×g supernatant, see above) to ensure that 10-20% of the cGMP was converted under the said experimental conditions. […] After a preincubation of 5 min at 37° C., the reaction was commenced by adding the substrate (cGMP) and the assay was incubated for a further 15 min. The reaction was terminated by adding SPA beads (50 μl). In agreement with the manufacturer's instructions, the SPA beads had previously been resuspended in water, but were then diluted 1:3 (v/v) in water. This diluted solution also contained 3 mM 8-methoxymethyl-3-isobutyl-1-methylxanthine (IBMX) to ensure a complete block of PDE activity. Once the beads were sedimented (>30 min), the MTP's were analyzed in commercially available luminescence detection devices. The corresponding IC50 values of the compounds for inhibition of PDE activity were determined from the concentration-effect curves by means of non-linear regression.
For the following compounds PDE5 inhibitory values [measured as −logIC50 (mol/l)] below 8 and between 8 and 9 have been determined. The numbers of the compounds correspond to the numbers of the examples.

PDE4B1 = biological target: T2, PDE4B1 (Homo sapiens, UniProt Q07343); test: Inhibition of PDE4B1 activity (SPA, [3H]cAMP); format: biochemical; details: recombinant PDE4B1, 0.5 μM cAMP; binned: below 8 / between 8 and 9; read-out: PDE4B1 inhibitory values measured as −logIC50 (converted)
T2 construct: made in house; host or cells: SF21 insect cells (baculovirus; virus prepared in SF9 cells)
T2 sequence (Q07343 whole entry): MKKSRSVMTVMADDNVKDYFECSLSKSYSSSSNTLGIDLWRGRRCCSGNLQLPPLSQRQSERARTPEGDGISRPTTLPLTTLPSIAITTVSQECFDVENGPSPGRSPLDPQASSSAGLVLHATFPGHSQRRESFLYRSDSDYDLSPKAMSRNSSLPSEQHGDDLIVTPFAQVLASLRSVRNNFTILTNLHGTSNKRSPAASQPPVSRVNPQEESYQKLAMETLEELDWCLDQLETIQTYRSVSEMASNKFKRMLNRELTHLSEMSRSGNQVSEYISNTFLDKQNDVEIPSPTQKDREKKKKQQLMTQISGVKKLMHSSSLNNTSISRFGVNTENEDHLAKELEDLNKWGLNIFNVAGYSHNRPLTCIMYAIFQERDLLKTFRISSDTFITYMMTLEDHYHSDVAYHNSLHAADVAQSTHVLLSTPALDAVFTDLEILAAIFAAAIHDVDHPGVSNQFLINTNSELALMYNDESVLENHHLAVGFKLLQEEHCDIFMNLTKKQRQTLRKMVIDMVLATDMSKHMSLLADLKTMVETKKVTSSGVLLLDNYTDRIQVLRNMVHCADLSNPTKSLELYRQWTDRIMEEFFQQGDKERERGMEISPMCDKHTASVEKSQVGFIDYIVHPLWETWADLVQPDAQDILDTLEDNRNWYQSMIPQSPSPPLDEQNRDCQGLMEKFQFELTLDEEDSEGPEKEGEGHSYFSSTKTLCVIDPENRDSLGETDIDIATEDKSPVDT
Description: The PDE4B1 (GB no. L20966) was a gift of Prof. M. Conti (Stanford University, USA). It was amplified from the original plasmid (pCMV5) via PCR with primers Rb18 (5′-[…]-3′) and Rb10 (5′-[…]-3′) and cloned into the pCR-Bac vector (Invitrogen, Groningen, NL).
The recombinant baculovirus was prepared by means of homologous recombination in SF9 insect cells. The expression plasmids were cotransfected with Baculo-Gold DNA (Pharmingen, Hamburg) using a standard protocol (Pharmingen, Hamburg). Wt virus-free recombinant virus supernatants were selected using plaque assay methods. After that, high-titre virus supernatants were prepared by amplifying 3 times. PDE4B1 was expressed in SF21 cells by infecting 2×10^6 cells/ml with an MOI (multiplicity of infection) between 1 and 10 in the serum-free SF900 medium (GIBCO Life Technologies, Karlsruhe, Germany). The cells were cultured at 28° C. for 48-72 hours, after which they were pelleted for 5-10 min at 1000×g and 4° C.
The SF21 insect cells were resuspended, at a concentration of approx. 10^7 cells/ml, in ice-cold (4° C.) homogenization buffer (20 mM Tris, pH 8.2, containing the following additions: 140 mM NaCl, 3.8 mM KCl, 1 mM EGTA, 1 mM MgCl2, 10 mM β-mercaptoethanol, 2 mM benzamidine, 0.4 mM Pefablock, 10 μM leupeptin, 10 μM pepstatin A, 5 μM trypsin inhibitor) and disrupted by ultrasonication. The homogenate was then centrifuged for 10 min at 1000×g and the supernatant was stored at −80° C. until subsequent use (see below). The protein content was determined by the Bradford method (BioRad, Munich) using BSA (Bovine serum albumin) as the standard.
PDE4B1 activities were measured in a 96-well platform using SPA (scintillation proximity assay) yttrium silicate beads (RPNQ1050 from GE Healthcare). In a first step the PDE activity operated hydrolysis of either [^3H] cAMP (substrate) into [^3H] 5′AMP. In a second step substrate and product were distinguished following addition of SPA yttrium silicate beads. Indeed, in the presence of zinc sulphate the linear [^3H] […] Close proximity of bound [^3H] […] The test volume was 100 μl and finally contained 20 mM Tris buffer (pH 7.4), 0.1 mg/ml of BSA, 5 mM Mg^2+, 0.5 μM cAMP (including about 50,000 cpm of [3H]cAMP) as substrate, 1 μl of the respective substance dilution in DMSO and sufficient recombinant PDE (1000×g supernatant, see above) to ensure that 10-20% of the cAMP was converted under the said experimental conditions. […] After a preincubation of 5 min at 37° C., the reaction was commenced by adding the substrate (cAMP) and the assays were incubated for a further 15 min. Reactions were terminated by adding SPA beads (50 μl). In agreement with the manufacturer's instructions, the SPA beads had previously been resuspended in water, but were then diluted 1:3 (v/v) in water. This diluted solution further contained 3 mM IBMX (isobutylmethylxanthine) to ensure a complete block of PDE activity. Once the beads were sedimented (>30 min), the MTP's (microtiter plate) were analyzed in commercially available luminescence detection devices. The corresponding IC50 values of the compounds for inhibition of PDE4B1 activity were determined from the concentration-effect curves by means of non-linear regression.
For the following compounds PDE4B1 inhibitory values [measured as −logIC50 (mol/l)] below 8 and between 8 and 9 have been determined. The numbers of the compounds correspond to the numbers of the examples.

| IC50 (human PDE5) [nM] | IC50 (PDE4B1) [nM] | Compound |
| --- | --- | --- |
| > 10 | 1 to 10 | CCOc1cc2c(cc1OC)C(c1ccc(C(=O)N3CCC(n4c(=O)c5sc(-c6ccc(F)cc6OC)cc5n(Cc5ccccc5)c4=O)CC3)cc1)=N[C@@H]1CCSC[C@H]21 [Example 17, 1-benzyl-3-[1-({4-[(4aR,10bR)-9-ethoxy-8-methoxy-3,4,4a,10b-tetrahydro-1H-thiopyrano[4,3-c]isoquinolin-6-yl]phenyl}carbonyl)piperidin-4-yl]-6-(4-fluoro-2-methoxyphenyl)thieno[3,2-d]pyrimidine-2,4(1H,3H)-dione] |
| 1 to 10 | 1 to 10 | CCOc1cc2c(cc1OC)C(c1ccc(C(=O)N3CCC(n4c(=O)c5sc(-c6cc(F)ccc6OC)cc5n(Cc5ccc(OC)c(F)c5)c4=O)CC3)cc1)=N[C@@H]1CCSC[C@H]21 [Example 10, 3-[1-({4-[(4aR,10bR)-9-ethoxy-8-methoxy-3,4,4a,10b-tetrahydro-1H-thiopyrano[4,3-c]isoquinolin-6-yl]phenyl}carbonyl)piperidin-4-yl]-1-(3-fluoro-4-methoxybenzyl)-6-(5-fluoro-2-methoxyphenyl)thieno[3,2-d]pyrimidine-2,4(1H,3H)-dione] |
| 1 to 10 | 1 to 10 | CCOc1cc2c(cc1OC)C(c1ccc(C(=O)N3CCC(n4c(=O)c5sc(-c6ccccc6)cc5n(Cc5cc(F)c(OC)c(F)c5)c4=O)CC3)cc1)=N[C@@H]1CCSC[C@H]21 [Example 3, 1-(3,5-difluoro-4-methoxybenzyl)-3-[1-({4-[(4aR,10bR)-9-ethoxy-8-methoxy-3,4,4a,10b-tetrahydro-1H-thiopyrano[4,3-c]isoquinolin-6-yl]phenyl}carbonyl)piperidin-4-yl]-6-phenylthieno[3,2-d]pyrimidine-2,4(1H,3H)-dione] |
| 1 to 10 | 1 to 10 | CCOc1cc2c(cc1OC)C(c1ccc(C(=O)N3CCC(n4c(=O)c5sc(-c6ccc(F)cc6)cc5n(Cc5ccc(OC)c(F)c5)c4=O)CC3)cc1)=N[C@@H]1CCSC[C@H]21 [Example 13, 3-[1-({4-[(4aR,10bR)-9-ethoxy-8-methoxy-3,4,4a,10b-tetrahydro-1H-thiopyrano[4,3-c]isoquinolin-6-yl]phenyl}carbonyl)piperidin-4-yl]-1-(3-fluoro-4-methoxybenzyl)-6-(4-fluorophenyl)thieno[3,2-d]pyrimidine-2,4(1H,3H)-dione] |
| 1 to 10 | 1 to 10 | CCOc1cc2c(cc1OC)C(c1cccc(C(=O)N3CCC(n4c(=O)c5sc(-c6ccccc6)cc5n(Cc5ccc(OC)c(F)c5)c4=O)CC3)c1)=N[C@@H]1CCSC[C@H]21 [Example 2, 3-[1-({3-[(4aR,10bR)-9-ethoxy-8-methoxy-3,4,4a,10b-tetrahydro-1H-thiopyrano[4,3-c]isoquinolin-6-yl]phenyl}carbonyl)piperidin-4-yl]-1-(3-fluoro-4-methoxybenzyl)-6-phenylthieno[3,2-d]pyrimidine-2,4(1H,3H)-dione] |
| 1 to 10 | 1 to 10 | CCOc1cc2c(cc1OC)C(c1ccc(C(=O)N3CCC(n4c(=O)c5sc(-c6ccccc6)cc5n(Cc5ccc(OC)c(F)c5)c4=O)CC3)cc1)=N[C@@H]1CCSC[C@H]21 [Example 1, 3-(1-{4-[(4aR,10bR)-9-ethoxy-8-methoxy-3,4,4a,10b-tetrahydro-1H-thiopyrano[4,3-c]isoquinolin-6-yl]benzoyl}piperidin-4-yl)-1-(3-fluoro-4-methoxybenzyl)-6-phenylthieno[3,2-d]pyrimidine-2,4(1H,3H)-dione] |
| 1 to 10 | > 10 | CCOc1cc2c(cc1OC)C(c1ccc(C(=O)N3CCC(n4c(=O)c5sc(-c6ccc(F)cc6OC)cc5n(Cc5cc(F)c(OC)c(F)c5)c4=O)CC3)cc1)=N[C@@H]1CCSC[C@H]21 [Example 14, 1-(3,5-difluoro-4-methoxybenzyl)-3-[1-({4-[(4aR,10bR)-9-ethoxy-8-methoxy-3,4,4a,10b-tetrahydro-1H-thiopyrano[4,3-c]isoquinolin-6-yl]phenyl}carbonyl)piperidin-4-yl]-6-(4-fluoro-2-methoxyphenyl)thieno[3,2-d]pyrimidine-2,4(1H,3H)-dione] |
| 1 to 10 | 1 to 10 | CCOc1cc2c(cc1OC)C(c1ccc(C(=O)N3CCC(n4c(=O)c5sc(-c6ccc(F)cc6OC)cc5n(Cc5ccc(C)c(F)c5)c4=O)CC3)cc1)=N[C@@H]1CCSC[C@H]21 [Example 16, 3-[1-({4-[(4aR,10bR)-9-ethoxy-8-methoxy-3,4,4a,10b-tetrahydro-1H-thiopyrano[4,3-c]isoquinolin-6-yl]phenyl}carbonyl)piperidin-4-yl]-6-(4-fluoro-2-methoxyphenyl)-1-(3-fluoro-4-methylbenzyl)thieno[3,2-d]pyrimidine-2,4(1H,3H)-dione] |
| > 10 | 1 to 10 | CCOc1cc2c(cc1OC)C(c1ccc(C(=O)N3CCC(n4c(=O)c5sc(-c6ccc(F)cc6OC)cc5n(Cc5ccc(OC)c(F)c5F)c4=O)CC3)cc1)=N[C@@H]1CCSC[C@H]21 [Example 15, 1-(2,3-difluoro-4-methoxybenzyl)-3-[1-({4-[(4aR,10bR)-9-ethoxy-8-methoxy-3,4,4a,10b-tetrahydro-1H-thiopyrano[4,3-c]isoquinolin-6-yl]phenyl}carbonyl)piperidin-4-yl]-6-(4-fluoro-2-methoxyphenyl)thieno[3,2-d]pyrimidine-2,4(1H,3H)-dione] |
